# Laboratory results reported in patent EP0565593B1, “REDUCING PESTICIDAL INTERACTIONS IN CROPS” (priority 1990, dated 1992).
# Several values for one entry are separate records, joined by “and”; a condition that tells them apart may be missing. Equal values may be shown once. Read-outs that look alike come from different tables or passages of the source.
# Tests used:
# [1] = tested on: Shattercane (SHCA); assay type: in vivo
# [2] = tested on: Giant foxtail (GIFT); assay: whole plant or invertebrate; assay type: in vivo; settings: in vivo
# [3] = tested on: Corn
# [4] = tested on: Velvetleaf (VELE); assay type: in vivo, Abutilon theophrasti
# [5] = tested on: Corn; settings: MON-12000 + OP insecticides; Examples 20-23
# [6] = tested on: Corn; assay: Greenhouse test Procedure VII: biocide and antidote in furrow, herbicide POE (Examples 39-42, 48-50, 56-58; Tables 38-41, 47-49, 55-57); assay type: in vivo; settings: for % Inhibition Corn: C (COUNTER) + antidote in furrow
# Excerpt: This procedure describes interaction among herbicide, biocide and antidote when the biocide and the antidote is applied to a soil furrow containing crop seed before emergence of the crop and the herbicide is applied after emergence of the crop and weeds. The soil and planting depth was described in Procedure IV. The containers for comparison, the biocide and antidote applications to soil furrows were described in Procedure VI. In this procedure, the seed beds of the first, second, third and fourth containers are covered by soil layers not treated with herbicide. The containers were then placed on a bench in a greenhouse and subirrigated as required for the duration of the test. The herbicide, dispersed or dissolved in water containing 0.25% v/v nonionic surfactant (X-77) was applied by a track sprayer (187 L/ha) to the emerged plants of the second, third and fourth containers about five days after planting. All treatments were run in duplicate. Plant response was observed according to Procedure IV. Variations in this procedure will be noted in the examples.
# In this example, tests were conducted according to Procedure VII for the POE application of the herbicides following in-furrow application of COUNTER® 15G insecticide (BIOCIDE No. 1) and the antidote on the pre-planted test seeds. In this test, the herbicides were Nos. 1 (MON-12000), 10 (ALLY®) and #4 (HARMONY®) and the Antidote Nos. 1, 7, 12 and 33.
# These in-furrow treatments comprised a 50-50 mix of blended granules of COUNTER with and without 5G granular antidotes at 7.4 + 7.4 mg/cm or 1.1 + 0.37 mg active ingredient (a.i.)/cm. The in-furrow initiation of the test was followed five (5) days later with POE application of the herbicides; observations were made eight (8) days later.
# In another test, conducted simultaneously with that in Example 39, Herbicide Nos. 5 (chlorimuron ethyl, active ingredient in CLASSIC® herbicide), 7 (nicosulfuron, active ingredient in ACCENT® herbicide) and 15 (tribenuron methyl, active ingredient in EXPRESS® herbicide) were substituted as test herbicides.
# In this example, using the same procedure as above, the following imidazolinone herbicides were used with the same insecticide/biocide and antidotes as above: Herb. No. 16 (imazaquin, a.i. in SCEPTER® herbicide; No. 19 (Code No. AC 222293, a.i. in ASSERT® herbicide); No. 6 (imazethapyr, a.i. in PURSUIT® herbicide and No. 18 (imazapyr, a.i. in ARSENAL® herbicide). Test results are shown in Table 40. Table 40
# This example describes the testing of the above antidotes used in Examples 39-41 to safen negative synergy interactions between representative species of the class of herbicidal compounds identified as azolopyrimidine sulfonamides and COUNTER 15G. The same procedure used in the above examples was conducted in this test. In this test, the herbicides were formulated in 17% acetone and 83% water with 0.25% v/v X-77 surfactant.
# In these tests (according to Procedure VII) the safeners in solution with acetone were applied in furrow to the soil, followed by COUNTER 15G granules at 227 g/305 m (8 oz./1000'). Applications were made in alternate rows in two separate 13.7 cm x 27.7 cm pans containing Dupo silt loam. Pans were seeded 1.3 cm deep, placed on benches in a greenhouse and subirrigated. BEACON was formulated in water with 0.25% v/v X-77 surfactant and applied by track sprayer at a rate of 187 L/Ha (20 gal/A). Weed species in this test were giant foxtail, shattercane and velvetleaf. The herbicide was applied five (5) days after PPI initiation and observation of test result (shown in Table 47) made eight (8) days later.
# In Table 47 COUNTER 15G is abbreviated as "C" and the antidotes as "A" in the column headings which indicate the "C + A" ratios used in the tests. Control and COUNTER treatments are average of four (4) replications and COUNTER + Antidote treatments, average of 2 reps. […]
# [7] = Antidote 8.96 + Biocide No. 1 8.96 Kg/Ha PPI, Herb. No. 8 0.07, 5 DAP, before herbicide application
# [8] = Antidote 8.96 + Biocide No. 1 8.96 Kg/Ha PPI, Herb. No. 8 0.07 POE, 13 DAP
# [9] = Antidote 8.96 + Biocide No. 1 8.96 Kg/Ha PPI, Herbicide No. 7 0.28 POE, 13 days after planting
# [10] = Table 14: Herbicide No. 7 (ACCENT) 0.84 Kg/Ha POE + Biocide No. 2 8.96 Kg/Ha PPI + antidote 8.96 Kg/Ha PPI, 13 days after planting, 8 days after herbicide
# [11] = […], 13 days after planting, 8 days after herbicide
# [12] = […], observed 10 days after herbicide application
# [13] = Herb. […], 5 DAP, before herbicide application
# [14] = Antidote 4.48 + Biocide No. 1 8.96 Kg/Ha PPI, Herb. No. 8 0.07, 5 DAP, before herbicide application
# [15] = Antidote 4.48 + Biocide No. 1 8.96 Kg/Ha PPI, Herb. No. 8 0.07 POE, 13 DAP
# [16] = Antidote 4.48 + Biocide No. 1 8.96 Kg/Ha PPI, Herbicide No. 7 0.28 POE, 13 days after planting
# [17] = Table 14: Herbicide No. 7 (ACCENT) 0.84 Kg/Ha POE + Biocide No. 2 8.96 Kg/Ha PPI + antidote 4.48 Kg/Ha PPI, 13 days after planting, 8 days after herbicide
structure (smiles),measurement,setting,value
COc1ccc(OC)c(C(=O)CC2OC(=O)c3ccccc32)c1 (centres unmarked) [compound 77],% Inhibition 5 DAP SHCA,[1]; [7],10%
same,% Inhibition 13 DAP SHCA,[1]; [8],85%
same,% Inhibition SHCA,[1]; [9],70%
same,% Inhibition SHCA,[1]; [10],85%
same,% Inhibition SHCA,[1]; [11],95%
same,% Inhibition SHCA,[1]; [12],60%
same,% Inhibition 5 DAP SHCA,[1]; in vivo,60%
same,% Inhibition 13 DAP SHCA,[1]; in vivo,90%
same,% Inhibition SHCA,[1]; in vivo,85% and 55% and 65% and 45%
same,% Inhibition GIFT,[2],60% and 95% and 85% and 80% and 70%
same,% Inhibition 5 DAP Corn,[3]; [7],0%
same,% Inhibition 13 DAP Corn,[3]; [8],75%
same,% Inhibition Corn,[3]; [9],25%
same,% Inhibition 5 DAP Corn,[3]; [13],0%
same,% Inhibition Corn,[3]; [10],25%
same,% Inhibition Corn,[3]; [11],15%
same,% Inhibition Corn,[3]; [12],20%
same,% Inhibition 5 DAP Corn,[3]; in vivo,15%
same,% Inhibition 13 DAP Corn,[3]; in vivo,65%
same,activity in reducing corn injury,"[3]; primisulfuron POE + biocides PPI, Tables 8-10",either inactive or weakly active
same,% Inhibition 5 DAP VELE,[4]; [7],0%
same,% Inhibition 13 DAP VELE,[4]; [8],90%
same,% Inhibition VELE,[4]; [9],65%
same,% Inhibition 5 DAP VELE,[4]; [13],0%
same,% Inhibition VELE,[4]; [10],70%
same,% Inhibition VELE,[4]; [11],70%
same,% Inhibition VELE,[4]; [12],80%
same,% Inhibition 5 DAP VELE,[4]; in vivo,20%
same,% Inhibition 13 DAP VELE,[4]; in vivo,95%
same,safening activity,[5],low or nil
C=CCSC(=S)N(C)c1ccccc1 [compound 29],% Inhibition 5 DAP SHCA,[1]; [14],40%
same,% Inhibition 13 DAP SHCA,[1]; [15],80%
same,% Inhibition SHCA,[1]; [16],70%
same,% Inhibition 5 DAP SHCA,[1]; [13],10%
same,% Inhibition SHCA,[1]; [17],80%
same,% Inhibition SHCA,[1]; [11],85%
same,% Inhibition SHCA,[1]; [12],60%
same,% Inhibition 5 DAP SHCA,[1]; in vivo,40%
same,% Inhibition 13 DAP SHCA,[1]; in vivo,85%
same,% Inhibition SHCA,[1]; in vivo,80% and 75% and 65% and 45%
same,% Inhibition GIFT,[2],55% and 75% and 65% and 95%
same,% Inhibition 5 DAP Corn,[3]; [14],0%
same,% Inhibition 13 DAP Corn,[3]; [15],65%
same,% Inhibition Corn,[3]; [16],60%
same,% Inhibition 5 DAP Corn,[3]; [13],0%
same,% Inhibition Corn,[3]; [17],35%
same,% Inhibition Corn,[3]; [11],35%
same,% Inhibition Corn,[3]; [12],75%
same,% Inhibition 5 DAP Corn,[3]; in vivo,35%
same,% Inhibition 13 DAP Corn,[3]; in vivo,65%
same,% Inhibition 5 DAP VELE,[4]; [14],0%
same,% Inhibition 13 DAP VELE,[4]; [15],95%
same,% Inhibition VELE,[4]; [16],70%
same,% Inhibition 5 DAP VELE,[4]; [13],0%
same,% Inhibition VELE,[4]; [17],70%
same,% Inhibition VELE,[4]; [11],65%
same,% Inhibition VELE,[4]; [12],75%
same,% Inhibition 5 DAP VELE,[4]; in vivo,20%
same,% Inhibition 13 DAP VELE,[4]; in vivo,95%
CC1CN(C(=O)C(Cl)Cl)C(C)(C)O1 (centres unmarked) [compound 8],% Inhibition 5 DAP SHCA,[1]; [14],0%
same,% Inhibition 13 DAP SHCA,[1]; [15],90%
same,% Inhibition SHCA,[1]; [16],60%
same,% Inhibition SHCA,[1]; [17],85%
same,% Inhibition SHCA,[1]; [11],90%
same,% Inhibition SHCA,[1]; [12],60%
same,% Inhibition 5 DAP SHCA,[1]; in vivo,30%
same,% Inhibition 13 DAP SHCA,[1]; in vivo,80%
same,% Inhibition Corn,"[6]; C:A Ratio 20, ACCENT 0.56 Kg/Ha POE",10%
same,% Inhibition Corn,"[6]; C:A Ratio 20, BEACON 0.28 Kg/Ha POE",0%
same,% Inhibition Corn,"[6]; C:A Ratio 40, ACCENT 0.56 Kg/Ha POE",15%
same,% Inhibition Corn,"[6]; C:A Ratio 40, BEACON 0.28 Kg/Ha POE",0%
same,% Inhibition Corn,"[6]; C:A Ratio 80, ACCENT 0.56 Kg/Ha POE",20%
same,% Inhibition Corn,"[6]; C:A Ratio 80, BEACON 0.28 Kg/Ha POE",5%
same,% Inhibition Corn,"[6]; C:A Ratio 160, ACCENT 0.56 Kg/Ha POE",40%
same,% Inhibition Corn,"[6]; C:A Ratio 160, BEACON 0.28 Kg/Ha POE",15%
same,% Corn Inhibition C:A Ratios 5,"[6]; Herbicide No. 8 0.28 Kg/Ha POE + COUNTER 15G 227 g/305 m + antidote in furrow, C:A ratio 5",3%
same,% Corn Inhibition C:A Ratios 10,"[6]; Herbicide No. 8 0.28 Kg/Ha POE + COUNTER 15G 227 g/305 m + antidote in furrow, C:A ratio 10",5%
same,% Corn Inhibition C:A Ratios 20,"[6]; Herbicide No. 8 0.28 Kg/Ha POE + COUNTER 15G 227 g/305 m + antidote in furrow, C:A ratio 20",5%
same,% Corn Inhibition C:A Ratios 40,"[6]; Herbicide No. 8 0.28 Kg/Ha POE + COUNTER 15G 227 g/305 m + antidote in furrow, C:A ratio 40",3%
same,% Corn Inhibition C:A Ratios 80,"[6]; Herbicide No. 8 0.28 Kg/Ha POE + COUNTER 15G 227 g/305 m + antidote in furrow, C:A ratio 80",5%
same,% Corn Inhibition C:A Ratios 160,"[6]; Herbicide No. 8 0.28 Kg/Ha POE + COUNTER 15G 227 g/305 m + antidote in furrow, C:A ratio 160",10%
same,% Inhibition GIFT,[2],45% and 50% and 85% and 65% and 70% and 90% and 60%
same,% Inhibition 5 DAP Corn,[3]; [14],20%
same,% Inhibition 13 DAP Corn,[3]; [15],35%
same,% Inhibition Corn,[3]; [16],35%
same,% Inhibition 5 DAP Corn,[3]; [13],0%
same,% Inhibition Corn,[3]; [17],20%
same,% Inhibition Corn,[3]; [11],20%
same,% Inhibition Corn,[3]; [12],45%
same,% Inhibition 5 DAP Corn,[3]; in vivo,20%
same,% Inhibition 13 DAP Corn,[3]; in vivo,30%
same,% Inhibition Corn,[3]; in vivo,30% and 55%
same,% Inhibition 5 DAP VELE,[4]; [14],10%
same,% Inhibition 13 DAP VELE,[4]; [15],85%
same,% Inhibition VELE,[4]; [16],65%
same,% Inhibition 5 DAP VELE,[4]; [13],0%
same,% Inhibition VELE,[4]; [17],70%
same,% Inhibition VELE,[4]; [11],70%
same,% Inhibition VELE,[4]; [12],75%
same,% Inhibition 5 DAP VELE,[4]; in vivo,0%
same,% Inhibition 13 DAP VELE,[4]; in vivo,90%
